We go through 16 compounds from US20200399222A1, “PICOLINAMIDES AS FUNGICIDES” (Dow AgroSciences LLC, priority 2018, published 2020).

SMILES strings stand for the structures. Where two headings read alike, the source gives them in different places.

Holding throughout (assay type): in vivo
In one test the test system is Phakopsora pachyrhizi. Put plainly: Asian soybean rust (PHAKPA) disease control on soybean seedlings. Particulars: Phakopsora pachyrhizi, High volume application at 25 ppm. Put shortly:
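Compounds in acetone diluted with nine volumes of water containing 0.011% Tween 20, sprayed to run-off on two-week-old Williams 82 soybean seedlings; inoculation 3 days before or 1 day after treatment. Plants held 24 h in dark dew room at 22° C, 100% RH, then at 23° C; disease severity scored on sprayed leaves.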

Another test concerns Zymoseptoria tritici. Put plainly: Leaf blotch of wheat (SEPTTR) disease control on wheat seedlings. Particulars: for pest or weed control at 121.5 g/ha: Low volume application; for pest or weed control at 100 ppm: High volume application.
A further test has as its system Puccinia triticina. Put plainly: Wheat brown rust (PUCCRT) disease control on wheat seedlings. Particulars: for pest or weed control at 121.5 g/ha: Low volume application; for pest or weed control at 100 ppm: High volume application. In a few lines:
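Yuma wheat seedlings (first leaf emerged) sprayed to run-off with compound in acetone plus nine volumes water containing 110 ppm Triton X-100, or track-sprayed as EC formulations with 0.1% Trycol 5941. Rust spores inoculated before or after treatment; overnight dark dew, 22 °C, 100% RH, then greenhouse at 24 °C.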

Setting [1] is: 24 h, 1 day protectant, read-out: PHAKPA 1DP (1 Day Protectant) disease control.
Setting [2] is: 72 h, 3 day curative, read-out: PHAKPA 3DC (3 Day Curative) disease control.
The mark [3] stands for this setting: 24 h, 1 Day Protectant, read-out: SEPTTR disease control rating, 1DP.
Setting [4] is: 72 h, 3 Day Curative, read-out: SEPTTR disease control rating, 3DC.
[5] abbreviates: 24 h, 1 Day Protectant, read-out: PUCCRT disease control rating, 1DP.
Where [6] appears, read: 72 h, 3 Day Curative, read-out: PUCCRT disease control rating, 3DC.

With `COc1ccnc(C(=O)N[C@@H](C)C(=O)O[C@@H](C)[C@@H](C)c2c(C)cccc2C)c1OC(=O)C(C)C` [Example 237], the pest or weed control at 25 ppm with Phakopsora pachyrhizi (setting [1]) and in the test on Phakopsora pachyrhizi (setting [2]) was > 80% in each case. In addition, the pest or weed control at 121.5 g/ha in the test on Zymoseptoria tritici (setting [3]), in the test on Zymoseptoria tritici (setting [4]), in the test on Puccinia triticina (setting [5]) and in the test with Puccinia triticina (setting [6]) was < 80% in each case.
For the compound `COc1ccnc(C(=S)N[C@@H](C)C(=O)O[C@@H](C)[C@@H](C)c2ccccc2C(F)(F)F)c1OC(C)=O` [Example 270], the pest or weed control at 25 ppm in the test on Phakopsora pachyrhizi (setting [1]) was > 80%; in the test on Phakopsora pachyrhizi (setting [2]), < 80%. For the same compound, the pest or weed control at 121.5 g/ha in the test with Zymoseptoria tritici (setting [3]), in the test with Zymoseptoria tritici (setting [4]), with Puccinia triticina (setting [5]) and in the test on Puccinia triticina (setting [6]) was < 80% throughout.
`COc1ccnc(C(=O)N[C@@H](C)C(=O)O[C@@H](C)[C@@H](C)C2CCCC2)c1OC(=O)C(C)C` [Example 236]: the pest or weed control at 25 ppm is > 80% in the test on Phakopsora pachyrhizi (setting [1]) and < 0% in the test on Phakopsora pachyrhizi (setting [2]). Also, the pest or weed control at 121.5 g/ha in the test on Zymoseptoria tritici (setting [3]) was < 80%; in the test with Zymoseptoria tritici (setting [4]) it was < 0%; in the test with Puccinia triticina (setting [5]), < 80%; with Puccinia triticina (setting [6]), < 80%.
Regarding `COc1ccnc(C(=O)N[C@@H](C)C(=O)OC(C)C(C)c2c(C)cc(F)cc2C)c1OC(C)=O` (stereo partly drawn) [Example 256], the pest or weed control at 25 ppm in the test on Phakopsora pachyrhizi (setting [1]) and in the test with Phakopsora pachyrhizi (setting [2]) was > 80% each time. For the same compound, the pest or weed control at 121.5 g/ha in the test with Zymoseptoria tritici (setting [3]), with Zymoseptoria tritici (setting [4]), in the test with Puccinia triticina (setting [5]) and in the test with Puccinia triticina (setting [6]) was > 80% in each case.
For `COc1ccnc(C(=O)N[C@@H](C)C(=O)O[C@@H](C)[C@@H](C)c2ccc(F)cc2C)c1O` [Example 128], the pest or weed control at 25 ppm in the test with Phakopsora pachyrhizi (setting [2]) was > 80%. For the same compound, the pest or weed control at 100 ppm with Zymoseptoria tritici (setting [3]), with Zymoseptoria tritici (setting [4]), with Puccinia triticina (setting [5]) and in the test on Puccinia triticina (setting [6]) was > 80% each time.
For `COc1ccnc(C(=O)N[C@@H](C)C(=O)O[C@@H](C)[C@@H](C)c2ccccc2C(F)(F)F)c1OC(C)=O` [Example 245], the pest or weed control at 25 ppm in the test on Phakopsora pachyrhizi (setting [1]) and in the test on Phakopsora pachyrhizi (setting [2]) was > 80% in each case. For the same compound, the pest or weed control at 121.5 g/ha was > 80% with Zymoseptoria tritici (setting [3]), > 80% in the test on Zymoseptoria tritici (setting [4]), > 80% with Puccinia triticina (setting [5]) and < 80% in the test on Puccinia triticina (setting [6]).
In the case of `COc1ccnc(C(=O)N[C@@H](C)C(=O)O[C@H](C)[C@H](C)c2ccc(C)cc2C)c1OC(C)=O` [Example 178], the pest or weed control at 25 ppm was > 80% in the test with Phakopsora pachyrhizi (setting [1]) and < 80% in the test on Phakopsora pachyrhizi (setting [2]). Besides, the pest or weed control at 121.5 g/ha in the test on Zymoseptoria tritici (setting [3]), in the test on Zymoseptoria tritici (setting [4]), with Puccinia triticina (setting [5]) and in the test with Puccinia triticina (setting [6]) was < 80% each time.
In the case of `COc1ccnc(C(=O)N[C@@H](C)C(=O)O[C@H](C)[C@H](C)c2ccccc2C(F)(F)F)c1OC(C)=O` [Example 250], the pest or weed control at 25 ppm with Phakopsora pachyrhizi (setting [1]) and in the test on Phakopsora pachyrhizi (setting [2]) was < 80% each time. Further, the pest or weed control at 121.5 g/ha in the test on Zymoseptoria tritici (setting [3]) was < 80%; with Zymoseptoria tritici (setting [4]), < 80%; with Puccinia triticina (setting [5]), < 0%; in the test on Puccinia triticina (setting [6]), < 80%.
`COc1ccnc(C(=O)N[C@@H](C)C(=O)O[C@@H](C)[C@@H](C)c2ccccc2)c1OC(C)=O` [Example 258]: the pest or weed control at 25 ppm in the test on Phakopsora pachyrhizi (setting [1]) and in the test on Phakopsora pachyrhizi (setting [2]) was > 80% in each case. The pest or weed control at 100 ppm was < 80% with Zymoseptoria tritici (setting [3]), < 80% in the test on Zymoseptoria tritici (setting [4]), > 80% with Puccinia triticina (setting [5]) and > 80% in the test on Puccinia triticina (setting [6]). Besides, the pest or weed control at 121.5 g/ha in the test with Zymoseptoria tritici (setting [3]) was < 80%; in the test on Zymoseptoria tritici (setting [4]) it was > 80%; in the test with Puccinia triticina (setting [5]), < 80%; in the test with Puccinia triticina (setting [6]) it was > 80%.
As to `COc1ccnc(C(=O)N[C@@H](C)C(=O)O[C@@H](C)[C@@H](C)c2ccc(F)cc2C(F)(F)F)c1OC(=O)C(C)C` [Example 235], the pest or weed control at 25 ppm in the test on Phakopsora pachyrhizi (setting [1]) and in the test with Phakopsora pachyrhizi (setting [2]) was > 80% each time. The pest or weed control at 121.5 g/ha is > 80% in the test with Zymoseptoria tritici (setting [3]), > 80% in the test with Zymoseptoria tritici (setting [4]), < 80% in the test on Puccinia triticina (setting [5]) and < 80% in the test with Puccinia triticina (setting [6]).
On to `COc1cc(F)ccc1[C@@H](C)[C@@H](C)OC(=O)[C@H](C)n1c(=O)oc2c(OC)ccnc2c1=O` [Example 262], for which the pest or weed control at 25 ppm in the test with Phakopsora pachyrhizi (setting [1]) and in the test on Phakopsora pachyrhizi (setting [2]) was < 80% throughout. Moreover, the pest or weed control at 121.5 g/ha was < 80% in the test with Zymoseptoria tritici (setting [3]), < 80% in the test on Zymoseptoria tritici (setting [4]), < 0% in the test with Puccinia triticina (setting [5]) and < 0% in the test with Puccinia triticina (setting [6]).
With `COc1ccnc(C(=O)N[C@@H](C)C(=O)O[C@@H](C)[C@@H](C)c2ccccc2C(F)(F)F)c1O` [Example 158], the pest or weed control at 25 ppm in the test with Phakopsora pachyrhizi (setting [2]) is < 80%. Further, the pest or weed control at 100 ppm in the test on Zymoseptoria tritici (setting [3]) was > 80%; with Zymoseptoria tritici (setting [4]) it was < 80%; in the test on Puccinia triticina (setting [5]), > 80%; in the test on Puccinia triticina (setting [6]), > 80%.
For `COc1ccnc(C(=O)N[C@@H](C)C(=O)O[C@H](C)[C@H](C)c2ccc(F)cc2)c1OCOC(C)=O` [Example 232], the pest or weed control at 25 ppm with Phakopsora pachyrhizi (setting [1]) is < 80%; in the test on Phakopsora pachyrhizi (setting [2]), < 0%. Moreover, the pest or weed control at 121.5 g/ha in the test with Zymoseptoria tritici (setting [3]) is < 0%; in the test on Zymoseptoria tritici (setting [4]) it was < 80%; in the test with Puccinia triticina (setting [5]), > 80%; in the test on Puccinia triticina (setting [6]), < 80%.
Regarding `COc1ccnc(C(=O)N[C@@H](C)C(=O)O[C@@H](C)[C@@H](C)c2ccc(C)s2)c1OC(C)=O` [Example 259], the pest or weed control at 25 ppm in the test on Phakopsora pachyrhizi (setting [1]) and with Phakopsora pachyrhizi (setting [2]) was < 80% each time. For the same compound, the pest or weed control at 100 ppm in the test on Zymoseptoria tritici (setting [3]) was < 80%; with Zymoseptoria tritici (setting [4]), < 0%; with Puccinia triticina (setting [5]), > 80%; in the test with Puccinia triticina (setting [6]), > 80%. The pest or weed control at 121.5 g/ha was < 80% in the test with Zymoseptoria tritici (setting [3]), < 0% in the test on Zymoseptoria tritici (setting [4]), < 80% in the test with Puccinia triticina (setting [5]) and < 0% in the test with Puccinia triticina (setting [6]).
Turning to `COc1ccnc(C(=O)N[C@@H](C)C(=O)O[C@H](C)[C@H](C)c2c(C)cc(F)cc2C)c1OC(=O)C(C)C` [Example 242], the pest or weed control at 25 ppm in the test with Phakopsora pachyrhizi (setting [1]) and in the test on Phakopsora pachyrhizi (setting [2]) was > 80% throughout. The pest or weed control at 121.5 g/ha with Zymoseptoria tritici (setting [3]) is > 80%; with Zymoseptoria tritici (setting [4]), > 80%; in the test on Puccinia triticina (setting [5]) it was > 80%; in the test on Puccinia triticina (setting [6]), < 80%.
With `COc1ccnc(C(=S)N[C@@H](C)C(=O)O[C@@H](C)[C@@H](C)c2ccc(F)cc2C(F)(F)F)c1OC(C)=O` [Example 271], the pest or weed control at 25 ppm in the test with Phakopsora pachyrhizi (setting [1]) and in the test on Phakopsora pachyrhizi (setting [2]) was > 80% throughout. The pest or weed control at 121.5 g/ha in the test with Zymoseptoria tritici (setting [3]), in the test on Zymoseptoria tritici (setting [4]), in the test with Puccinia triticina (setting [5]) and with Puccinia triticina (setting [6]) was < 80% throughout.
